Patent US20120040966A1, “ANTI-VIRAL COMPOUNDS, TREATMENT, AND ASSAY” (priority 2008, published 2012)
Read-outs that look alike come from different tables or passages of the source.

Key:
[1] = test system: influenza strain A/VN/1203/2004 (H5N1); experiment: microbe, parasite or virus in culture; assay type: cell-based, Influenza A virus (H5N1)
[2] = test system: Madin Darby Canine Kidney (MDCK) cells; experiment: cells; assay type: cell-based; conditions: read-out: IC50 (toxicity)
[3] = Influenza A virus, H5N1, MDCK, 72 h, read-out: H5N1 EC50 (@ 50% Via)
[4] = Influenza A virus, H5N1, MDCK, 72 h, read-out: H5N1 EC50 (Inf Pt)
[5] = read-out: H5N1 EC50 (@ 50% Via)

Row | Structure (SMILES) | EC50 [1, 3] [µM] | EC50 [1, 4] [µM] | EC50 ([1]; read-out: H5N1 EC50 (Inf Pt)) [µM] | IC50 ([2]; Canis lupus familiaris, MDCK) [µM] | EC50 [1, 5] [µM] | IC50 [2] [µM]
1 | COc1ccc(C2NC(=O)NC3=C2CCN(C(C)=O)c2ccccc23)cc1Br (stereo not shown) [28000A] | > 20 |  |  |  |  | 
2 | COc1ccc(C2NC(=O)NC3=C2CCN(C(=O)CO)c2ccccc23)cc1Br (stereo not shown) [28001A] | > 20 |  |  |  |  | 
3 | COc1ccc(C2NC(=O)NC3=C2CCN(C(=O)COC(C)=O)c2ccccc23)cc1Br (stereo not shown) [28002A] | > 20 |  |  |  |  | 
4 | Cc1cccc(C2NC(=O)NC3=C2CCc2ccccc23)c1 (stereo not shown) [compound 22081] |  | 0.55 | 0.52 | > 50 |  | 
5 | Cc1ccc(C2NC(=O)NC3=C2CCc2ccccc23)cc1C (stereo not shown) [compound 22082] |  |  |  | > 50 |  | 
6 | Cc1ccc(-c2nc(=O)[nH]c3c2Cc2ccccc2-3)cc1 [compound 22084] | > 50 |  |  | > 50 |  | 
7 | Oc1nc(-c2ccc3c(c2)OCO3)c2c(n1)-c1ccccc1CC2 [compound 22085] |  |  |  | > 50 | < 0.48 | 
8 | O=C1NC2=C(CCc3ccccc32)C(c2cccnc2)N1 (stereo not shown) [compound 22086] | > 50 |  |  | > 50 |  | 
9 | COc1cccc2c1CCc1c(-c3ccc(C)cc3)nc(O)nc1-2 [compound 22088] |  |  |  | > 50 | 15.4 | 
10 | Cc1ccc(-c2nc(O)nc3c2COc2ccccc2-3)cc1C [compound 22106] | > 50 | > 50 |  | > 50 |  | 
11 | COc1cccc(-c2nc(O)nc3c2COc2ccccc2-3)c1 [compound 22108] | > 50 | > 50 |  | > 50 |  | 
12 | Cc1cccc(-c2nc(O)nc3c2COc2ccccc2-3)c1 [compound 22110] | 10.4 | 8.6 |  | > 50 |  | 
13 | COc1cccc(C2NC(=O)NC3=C2CCc2c(OC)cccc23)c1 (stereo not shown) [compound 22111] | > 50 | > 50 |  | > 50 |  | 
14 | COc1cccc(-c2nc(O)nc3c2CCc2c(OC)cccc2-3)c1 [compound 22112] | > 50 | > 50 |  | > 50 |  | 
15 | COc1cccc2c1CCc1c(-c3ccc(C)c(C)c3)nc(O)nc1-2 [compound 22114] | 13.5 |  |  | > 50 | 9.1 | 
16 | COc1cc(C2NC(=O)NC3=C2CCc2ccccc23)cc(OC)c1OC (stereo not shown) [compound 22115] | > 50 | > 50 |  | > 50 |  | 
17 | COc1cc(-c2nc(O)nc3c2CCc2ccccc2-3)cc(OC)c1OC [compound 22116] | > 50 | > 50 |  | > 50 |  | 
18 | O=C1NC2=C(CCCc3ccccc32)C(c2ccc3c(c2)OCO3)N1 (stereo not shown) [compound 22117] | 4.8 | 2.9 | 4 | > 50 | 6.8 | 
19 | Oc1nc(-c2ccc3c(c2)OCO3)c2c(n1)-c1ccccc1CCC2 [compound 22118] | > 50 | > 50 |  | > 50 |  | 
20 | Nc1nc(-c2ccc3c(c2)OCO3)c2c(n1)-c1ccccc1CC2 [compound 22120] | > 50 | > 50 |  | > 50 |  | 
21 | Oc1nc(-c2ccc3c(c2)OCO3)c2c(n1)-c1ccccc1CC2 [compound 22122] |  | > 50 |  |  | > 50 | > 50
22 | COc1cccc2c1CCc1c(-c3ccc(C)cc3)nc(O)nc1-2 [compound 22124] |  | > 50 |  |  | > 50 | > 50
23 | O=C1NC2=C(Cc3ccccc32)C(c2ccc3c(c2)OCO3)N1 (stereo not shown) [compound 22126] | > 50 | > 50 |  | > 50 |  | 
24 | COc1ccc(C2NC(=O)NC3=C2Cc2ccccc23)cc1 (stereo not shown) [compound 22127] | > 50 | > 50 |  | > 50 |  | 
25 | COc1ccc(-c2nc(O)nc3c2Cc2ccccc2-3)cc1 [compound 22128] | > 50 | > 50 |  | > 50 |  | 
26 | COc1ccc(C2NC(=O)NC3=C2COc2ccccc23)cc1 (stereo not shown) [compound 22129] | > 50 | > 50 |  | > 50 |  | 

Row | Structure (SMILES) | EC50 [1, 3] [µM] | EC50 [1, 4] [µM] | EC50 ([1]; read-out: H5N1 EC50 (Inf Pt)) [µM] | IC50 ([2]; Canis lupus familiaris, MDCK) [µM] | EC50 [1, 5] [µM] | IC50 [2] [µM]
27 | O=C1NC2=C(CCc3ccccc32)C(c2ccc(Cl)c(Cl)c2)N1 (stereo not shown) [compound 22130] |  |  |  | > 50 |  | 
28 | CC1CC2=C(NC(=O)NC2c2ccc3c(c2)OCO3)c2ccccc21 (stereo not shown) [compound 22342] | 0.72 | 0.39 |  | > 50 |  | 
29 | O=C1NC2=C(CCc3ccccc32)C(c2ccc3c(c2)OCCO3)N1 (stereo not shown) [compound 22343] | 45.7 | 31.9 |  | > 50 |  | 
30 | COc1ccc2c(c1)CCC1=C2NC(=O)NC1c1ccc2c(c1)OCO2 (stereo not shown) [compound 22344] | > 50 | > 50 |  | > 50 |  | 
31 | Cc1cccc(C2NC(=O)NC3=C2CCCc2ccccc23)c1 (stereo not shown) [compound 22345] | 18.8 | 13.6 |  | > 50 |  | 
32 | O=C1NC2=C(CCc3ccccc32)C(c2ccc3ccccc3c2)N1 (stereo not shown) [compound 22346] | ≥ 55 | > 50 |  | > 50 |  | 
33 | Nc1cccc(C2NC(=O)NC3=C2CCc2ccccc23)c1 (stereo not shown) [compound 22348] | > 50 | > 50 |  | > 50 |  | 
34 | Nc1ccc(C2NC(=O)NC3=C2CCc2ccccc23)cc1 (stereo not shown) [compound 22350] | 30.6 | 17.9 |  | > 50 |  | 
35 | COc1nc(-c2ccc3c(c2)OCO3)c2c(n1)-c1ccccc1CC2 [compound 22402] | 8.4 | 5.2 | 5.7 | > 50 | 14.5 | 
36 | Cn1c2c(c(-c3ccc4c(c3)OCO4)nc1=O)CCc1ccccc1-2 [compound 22403] | 5.2 | 1.7 | 2 | > 50 | 5.7 | 
37 | COc1ccc(C2NC(=O)NC3=C2CCc2ccccc23)cc1O (stereo not shown) [compound 22407] | > 50 | > 50 |  | > 50 |  | 
38 | COc1cc(C2NC(=O)NC3=C2CCc2ccccc23)ccc1O (stereo not shown) [compound 22408] | > 50 | > 50 |  | > 50 |  | 
39 | COc1ccc(C2NC(=O)NC3=C2CCc2ccccc23)c(OC)c1OC (stereo not shown) [compound 22410] | > 50 | > 50 |  | > 50 |  | 
40 | O=C1NC2=C(CCc3ccccc32)C(c2cccc3c2OCO3)N1 (stereo not shown) [compound 22411] | > 50 | > 50 |  | > 50 |  | 
41 | Oc1nc(-c2ccc3c(c2)OCO3)c2c(n1)-c1ccccc1OC2c1ccccc1 (stereo not shown) [compound 22422] | > 50 | > 50 |  | > 50 |  | 
42 | COc1cc(OC)cc(C2NC(=O)NC3=C2CCc2ccccc23)c1 (stereo not shown) [compound 22518] | 4.7 | 3.4 |  | > 50 |  | 
43 | COc1cc(C2NC(=O)NC3=C2CSc2ccccc23)ccc1F (stereo not shown) [compound 22519] |  | 6.5 |  | > 50 |  | 
44 | COc1ccc(C2NC(=O)NC3=C2CSc2ccccc23)cc1F (stereo not shown) [compound 22523] | 0.76 | 0.55 |  | > 50 |  | 
45 | O=C1NC2=C(CCc3ccccc32)C(c2cc(Br)c(O)c(Br)c2)N1 (stereo not shown) [compound 22702] | > 40 | > 40 |  | > 40 |  | 
46 | Cc1cc(C2NC(=O)NC3=C2CCc2ccccc23)cc(C)c1O (stereo not shown) [compound 22705] | > 40 | 10 |  | > 40 |  | 
47 | COc1ccc(C2NC(=O)N(Cl)C3=C2CCc2ccccc23)cc1Br (stereo not shown) [compound 22707] | 0.192 | 0.186 |  | > 50 |  | 
48 | CCOC(=O)CCC(=O)N1CC2=C(NC(=O)NC2c2ccc(OC)c(Br)c2)c2ccccc21 (stereo not shown) [compound 25484] | > 20 |  |  |  |  | 
49 | COc1ccc(C2NC(=O)NC3=C2CN(C(=O)OCCO)c2ccccc23)cc1Br (stereo not shown) [compound 25575] | 4.7 |  |  |  |  | 
50 | COCCOC(=O)N1CC2=C(NC(=O)NC2c2ccc(OC)c(Br)c2)c2ccccc21 (stereo not shown) [compound 25576] | > 20 |  |  |  |  | 
51 | CCOC(=O)N1CC2=C(NC(=O)NC2c2ccc(OC)c(Br)c2)c2ccccc21 (stereo not shown) [compound 25577] | > 20 | > 20 |  |  |  | 
52 | CCOC(=O)CCC(=O)N1CC2=C(NC(=O)NC2c2ccc(OC)c(Br)c2)c2ccccc21 (stereo not shown) [compound 25578] |  | > 10 |  |  | > 20 | 
